The record followed here is patent publication US6689790B2, “Substituted triazolopyridine compounds” (Hoffmann-La Roche Inc., priority 2001, dated 2004).

T1 sequence (P29274 whole entry): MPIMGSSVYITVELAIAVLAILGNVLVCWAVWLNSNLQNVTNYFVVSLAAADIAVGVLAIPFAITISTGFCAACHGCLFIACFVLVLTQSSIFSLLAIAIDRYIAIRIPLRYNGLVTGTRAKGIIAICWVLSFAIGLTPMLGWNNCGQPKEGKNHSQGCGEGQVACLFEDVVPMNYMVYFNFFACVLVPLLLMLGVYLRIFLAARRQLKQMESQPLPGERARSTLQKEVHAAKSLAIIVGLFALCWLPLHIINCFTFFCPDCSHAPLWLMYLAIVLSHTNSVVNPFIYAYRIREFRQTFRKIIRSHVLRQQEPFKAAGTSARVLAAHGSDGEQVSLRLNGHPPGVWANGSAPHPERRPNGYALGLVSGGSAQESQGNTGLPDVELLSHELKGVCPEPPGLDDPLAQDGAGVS

The experiment has as its target T1, human adenosine A2A receptor (Homo sapiens, UniProt P29274).
T1 construct: expressed in transfected cells; host or cells: CHO cells, semliki forest virus expression system; washed membranes
The experiment in a line: [3H]-SCH-58261 binding assay, human adenosine A2A receptor (CHO cell membranes, SPA). The conditions noted are these: [3H]-SCH-58261 displacement; list of examples 10-108; read-out: hA2a Ki. As for the experimental part: Human Adenosine A2A Receptor
The human adenosine A2A receptor was recombinantly expressed in chinese hamster ovary (CHO) cells using the semliki forest virus expression system. Cells were harvested, washed twice by centrifugation, homogenized and again washed by centrifugation. The final washed membrane pellet was suspended in a Tris (50 mM) buffer containing 120 mM NaCl, 5 mM KCl, 2 mM CaCl2 and 10 mM MgCl2 (pH 7.4) (buffer A). […] Compounds were tested at 10 concentrations from 10 μM-0.3 nM. All assays were conducted in duplicate and repeated at least two times. Assay plates were incubated for 1 hour at room temperature before centrifugation and then bound ligand determined using a Packard Topcount scintillation counter. IC50 values were calculated using a non-linear curve fitting program and Ki values calculated using the Cheng-Prussoff equation.
In general, Ki refers to the equilibrium dissociation constant of an inhibitor or competing ligand from its target. Take `CC1CCCN1C(=O)c1cc(N)c2nc(-c3ccccc3)nn2c1` (centres unmarked) [Example 70, (8-Amino-2-phenyl-[1,2,4]triazolo[1,5-a]pyridin-6-yl)-(2-methyl-pyrrolidin-1-yl)-methanone]: the Ki was 145 nM.
As for `CCCCN(C)C(=O)c1cc(N)c2nc(-c3ccccc3)nn2c1` [Example 71, 8-Amino-2-phenyl-[1,2,4]triazolo[1,5-a]pyridine-6-carboxylic acid methyl-butyl-amide], the figure is 484 nM; as for `CC1CCCCN1C(=O)c1cc(N)c2nc(-c3ccccc3)nn2c1` (centres unmarked) [Example 72, (8-Amino-2-phenyl-[1,2,4]triazolo[1,5-a]pyridin-6-yl)-(2-methyl-piperidin-1-yl)-methanone], 361 nM.
As to `CCN(CC)C(=O)C1CCCN(C(=O)c2cc(N)c3nc(-c4ccccc4)nn3c2)C1` (centres unmarked) [Example 73, 1-(8-Amino-2-phenyl-[1,2,4]triazolo[1,5-a]pyridine-6-carbonyl)-piperidine-3-carboxylic acid diethylamide], the Ki stood at 998 nM.
To `COC[C@@H]1CCCN1C(=O)c1cc(N)c2nc(-c3ccccc3)nn2c1` [Example 74, (8-Amino-2-phenyl-[1,2,4]triazolo[1,5-a]pyridin-6-yl)-(2-methoxymethyl-pyrrolidin-1-yl)-methanone] belongs 196 nM.
Take `CN(C)C(=O)[C@@H]1CCCN1C(=O)c1cc(N)c2nc(-c3ccccc3)nn2c1` [Example 76, 1-(8-Amino-2-phenyl-[1,2,4]triazolo[1,5-a]pyridine-6-carbonyl)-pyrrolidine-2-carboxylic acid dimethylamide]: the Ki stood at 420 nM.
Consider `CN(C)C(=O)CN(C)C(=O)c1cc(N)c2nc(-c3ccccc3)nn2c1` [Example 77, 8-Amino-2-phenyl-[1,2,4]triazolo[1,5-a]pyridine-6-carboxylic acid dimethylcarbamoyl-methyl-methyl-amide], for which the inhibition constant Ki is 674 nM.
For the molecule `CC1CCCN(C(=O)c2cc(N)c3nc(-c4ccccc4)nn3c2)C1` (centres unmarked) [Example 78, (8-Amino-2-phenyl-[1,2,4]triazolo[1,5-a]pyridin-6-yl)-(3-methyl-piperidin-1-yl)-methanone], the Ki was 385 nM.
For the molecule `CCCN(C)C(=O)c1cc(N)c2nc(-c3ccccc3)nn2c1` [Example 79, 8-Amino-2-phenyl-[1,2,4]triazolo[1,5-a]pyridine-6-carboxylic acid methyl-propyl-amide], the Ki was found to be 886 nM.
With `Nc1cc(C(=O)N2CC=CCC2)cn2nc(-c3ccccc3)nc12` [Example 80, (8-Amino-2-phenyl-[1,2,4]triazolo[1,5-a]pyridin-6-yl)-(3,6-dihydro-2H-pyridin-1-yl)-methanone], the Ki worked out at 289 nM.
On to `CN(CCc1ccccc1)C(=O)c1cc(N)c2nc(-c3ccccc3)nn2c1` [Example 81, 8-Amino-2-phenyl-[1,2,4]triazolo[1,5-a]pyridine-6-carboxylic acid methyl-phenethyl-amide], for which the Ki was found to be 524 nM.
As to `CCN(CC)C(=O)c1cc(N)c2nc(-c3ccc(C)o3)nn2c1` [Example 82, 8-Amino-2-(5-methyl-furan-2-yl)-[1,2,4]triazolo[1,5-a]pyridine-6-carboxylic acid diethylamide], the inhibitory constant (Ki) stood at 131 nM.
As for `CCN(CCOC)C(=O)c1cc(N)c2nc(-c3ccc(C)o3)nn2c1` [Example 87, 8-Amino-2-(5-methyl-furan-2-yl)-[1,2,4]triazolo[1,5-a]pyridine-6-carboxylic acid ethyl-(2-methoxy-ethyl)-amide], the figure is 104 nM.
As for `CCCN(C)C(=O)c1cc(N)c2nc(-c3ccc(C)o3)nn2c1` [Example 89, 8-Amino-2-(5-methyl-furan-2-yl)-[1,2,4]triazolo[1,5-a]pyridine-6-carboxylic acid methyl-propyl-amide], the figure is 178 nM; as for `Cc1ccc(-c2nc3c(N)cc(C(=O)N4CCSCC4)cn3n2)o1` [Example 90, [8-Amino-2-(5-methyl-furan-2-yl)-[1,2,4]triazolo[1,5-a]pyridin-6-yl]-thiomorpholin-4-yl-methanone], 140 nM; as for `Cc1ccc(-c2nc3c(N)cc(C(=O)N(C)CCc4ccccc4)cn3n2)o1` [Example 91, 8-Amino-2-(5-methyl-furan-2-yl)-[1,2,4]triazolo[1,5-a]pyridine-6-carboxylic acid methyl-phenethyl-amide], 112 nM.
`Cc1ccc(-c2nc3c(N)cc(C(=O)N4CC(C)OC(C)C4)cn3n2)o1` (centres unmarked) [Example 92, [8-Amino-2-(5-methyl-furan-2-yl)-[1,2,4]triazolo[1,5-a]pyridin-6-yl]-(2,6-dimethyl-morpholin-4-yl)-methanone]: the Ki amounted to 249 nM.
As for `CCN(CC)C(=O)c1cc(N)c2nc(-c3ccc(C)s3)nn2c1` [Example 93, 8-Amino-2-(5-methyl-thiophen-2-yl)-[1,2,4]triazolo[1,5-a]pyridine-6-carboxylic acid diethylamide], the figure is 322 nM; as for `Cc1ccc(-c2nc3c(N)cc(C(=O)N4CCCC4)cn3n2)s1` [Example 94, [8-Amino-2-(5-methyl-thiophen-2-yl)-[1,2,4]triazolo[1,5-a]pyridin-6-yl]-pyrrolidin-1-yl-methanone], 213 nM; as for `Cc1ccc(-c2nc3c(N)cc(C(=O)N4CCCCC4)cn3n2)s1` [Example 95, [8-Amino-2-(5-methyl-thiophen-2-yl)-[1,2,4]triazolo[1,5-a]pyridin-6-yl]-piperidin-1-yl-methanone], 225 nM.
Consider `Cc1ccc(-c2nc3c(N)cc(C(=O)N4CCCC4C)cn3n2)s1` (centres unmarked) [Example 96, [8-Amino-2-(5-methyl-thiophen-2-yl)-[1,2,4]triazolo[1,5-a]pyridin-6-yl]-(2-methyl-pyrrolidin-1-yl)-methanone], for which the Ki was determined as 154 nM.
Take `Cc1ccc(-c2nc3c(N)cc(C(=O)N(C)CC(=O)N(C)C)cn3n2)s1` [Example 98, 8-Amino-2-(5-methyl-thiophen-2-yl)-[1,2,4]triazolo[1,5-a]pyridine-6-carboxylic acid dimethylcarbamoyl-methyl-methyl-amide]: the Ki worked out at 220 nM.
With `CCN(CCOC)C(=O)c1cc(N)c2nc(-c3ccc(C)s3)nn2c1` [Example 99, 8-Amino-2-(5-methyl-thiophen-2-yl)-[1,2,4]triazolo[1,5-a]pyridine-6-carboxylic acid ethyl-(2-methoxy-ethyl)-amide], the Ki was found to be 238 nM.
With `Cc1ccc(-c2nc3c(N)cc(C(=O)N4CCCC(C)C4)cn3n2)s1` (centres unmarked) [Example 100, [8-Amino-2-(5-methyl-thiophen-2-yl)-[1,2,4]triazolo[1,5-a]pyridin-6-yl]-(3-methyl-piperidin-1-yl)-methanone], the inhibition constant Ki worked out at 178 nM.
To `CCCN(C)C(=O)c1cc(N)c2nc(-c3ccc(C)s3)nn2c1` [Example 101, 8-Amino-2-(5-methyl-thiophen-2-yl)-[1,2,4]triazolo[1,5-a]pyridine-6-carboxylic acid methyl-propyl-amide] belongs 228 nM; to `Cc1ccc(-c2nc3c(N)cc(C(=O)N4CCSCC4)cn3n2)s1` [Example 102, [8-Amino-2-(5-methyl-thiophen-2-yl)-[1,2,4]triazolo[1,5-a]pyridin-6-yl]-thiomorpholin-4-yl-methanone], 478 nM.
